Data taken from patent US8785692B2, “Substituted phenylamidines and the use thereof as fungicides” (priority 2007, dated 2014).
Read-outs that look alike come from different tables or passages of the source. Blank lines part the entries; values can stand above or below the compound they belong to.

Experiments:
[1] = logP (neutral / acidic, pH 2.3)
Sphaerotheca fuliginea = experiment: Sphaerotheca test (cucumber) / protective; type: in vivo; details: Podosphaera fuliginea, 168 h, read-out: efficacy
Procedure: Sphaerotheca Test (Cucumber)/Protective
Solvent: 49 parts by weight of N,N-dimethylformamide
Emulsifier: 1 part by weight of alkylaryl polyglycol ether
To produce a suitable preparation of active compound, 1 part by weight of active compound is mixed with the stated amounts of solvent and emulsifier, and the concentrate is diluted with water to the desired concentration.
To test for protective activity, young cucumber plants are sprayed with the active compound preparation at the stated application rate. 1 day after the treatment, the plants are inoculated with a spore suspension of Sphaerotheca fuliginea. The plants are then placed in a greenhouse at 70% relative atmospheric humidity and a temperature of 23° C.
Evaluation is carried out 7 days after the inoculation. 0% means an efficacy which corresponds to that of the control, whereas an efficacy of 100% means that no infection is observed.

[2] = cucumber, protective, 500 ppm active compound, evaluation 7 days after inoculation

logP [1]: 5.33
logP ([1]; pH 2.3): 2.38
Compound: CCN(C)C=Nc1cc(C)c(/C(C)=N/OC(C2CC2)C2CC2)cc1C [Compound 20, N′-{4-[(1E)-N-(dicyclopropylmethoxy)ethanimidoyl]-2,5-dimethylphenyl}-N-ethyl-N-methylimidoformamide]
pest or weed control at 500 ppm (Sphaerotheca fuliginea; [2]): ≥ 70%

logP [1]: 5.1
logP ([1]; pH 2.3): 2.3
Compound: CCN(C)C=Nc1cc(C)c(/C(C)=N/OCc2nc(-c3ccccc3)cs2)cc1C [Compound 21, N′-(2,5-dimethyl-4-{(1E)-N-[(4-phenyl-1,3-thiazol-2-yl)meth-oxy]ethanimidoyl}phenyl)-N-ethyl-N-methylimidoformamide]
pest or weed control at 500 ppm (Sphaerotheca fuliginea; [2]): ≥ 70%

logP [1]: 5.77
logP ([1]; pH 2.3): 2.69
Compound: CCN(C)C=Nc1cc(C)c(/C(C)=N/OCc2cccc(Oc3ccccc3)c2)cc1C [Compound 22, N′-(2,5-dimethyl-4-{(1E)-N-[(3-phenoxybenzyl)oxy]ethanimidoyl}phenyl)-N-ethyl-N-methylimidoformamide]
pest or weed control at 500 ppm (Sphaerotheca fuliginea; [2]): ≥ 70%

logP [1]: 3.33
logP ([1]; pH 2.3): 1.38
Compound: CCN(C)C=Nc1cc(C)c(/C(C)=N/OC)cc1C [Compound 24, N-ethyl-N′-{4-[(1E)-N-methoxyethanimidoyl]-2,5-dimethylphenyl}-N-methylimidoformamide]

logP [1]: 5.55
logP ([1]; pH 2.3): 2.56
Compound: CCN(C)C=Nc1cc(C)c(/C(C)=N/OCCc2ccc(Cl)cc2)cc1C [Compound 25, N′-(4-{(1E)-N-[2-(4-chloro-phenyl)ethoxy]ethanimidoyl}-2,5-dimethylphenyl)-N-ethyl-N-methylimidoformamide]
pest or weed control at 500 ppm (Sphaerotheca fuliginea; [2]): ≥ 70%

logP [1]: 5.51
logP ([1]; pH 2.3): 3.75
Compound: CCN(C)C=Nc1cc(C)c(/C(C)=N/OCc2c(Cl)cccc2Cl)cc1C [Compound 29, N′-(4-{(1E)-N-[(2,6-dichlorobenzyl)oxy]ethanimidoyl}-2,5-dimethylphenyl)-N-ethyl-N-methylimidoformamide]
pest or weed control at 500 ppm (Sphaerotheca fuliginea; [2]): ≥ 70%

logP [1]: 4.65
logP ([1]; pH 2.3): 2.07
Compound: CCN(C)C=Nc1cc(C)c(/C(C)=N/OCc2ccccc2)cc1C [Compound 31, N′-(4-{(1E)-N—[benzyloxy]-ethanimidoyl}-2,5-dimethylphenyl)-N-ethyl-N-methylimidoformamide]
pest or weed control at 500 ppm (Sphaerotheca fuliginea; [2]): ≥ 70%

logP [1]: 3.95
logP ([1]; pH 2.3): 1.67
Compound: CCN(C)C=Nc1cc(C)c(/C(C)=N/OCc2ccc(Cl)nc2)cc1C [Compound 32, N′-(4-{(1E)-N-[(6-chloropyridin-3-yl)methoxy]ethanimidoyl}-2,5-dimethylphenyl)-N-ethyl-N-methylimidoformamide]
pest or weed control at 500 ppm (Sphaerotheca fuliginea; [2]): ≥ 70%

logP [1]: 4.02
logP ([1]; pH 2.3): 1.72
Compound: C=CCO/N=C(\C)c1cc(C)c(N=CN(C)CC)cc1C [Compound 35, N′-{4-[(1E)-N-(allyloxy)ethanimidoyl]-2,5-dimethylphenyl}-N-ethyl-N-methylimidoformamide]

logP ([1]; pH 2.3): 1.91
Compound: CCN(C)C=Nc1cc(C)c(/C(C)=N/Nc2ccccc2F)cc1C [Compound 45, N-ethyl-N′-(4-{(1E)-1-[2-(2-fluorophenyl)hydrazinylidene]ethyl}-2,5-dimethylphenyl)-N-methylimidoformamide]

logP [1]: 4.75
logP ([1]; pH 2.3): 1.79
Compound: CCN(C)C=Nc1cc(C)c(/C(C)=N/CCCC(C)(C)C)cc1C [Compound 46, N′-{4-[(1E)-N-(4,4-dimethylpentyl)ethanimidoyl]-2,5-dimethylphenyl}-N-ethyl-N-methylimido-formamide]

logP [1]: 3.95
logP ([1]; pH 2.3): 1.67
Compound: CCN(C)C=Nc1cc(C)c(/C=N/OCC2CC2)cc1C [Compound 47, N′-(4-{(E)-[(cyclopropylmethoxy)imino]methyl}-2,5-dimethylphenyl)-N-ethyl-N-methylimidoformamide]

Further lines, the compound ahead of its results:

Compound: Cc1cc(C=NOCc2ccccc2)c(C)cc1N [4-(Benzyloxyiminomethyl)-2,5-dimethylaniline]
logP ([1]; pH 2.3): 4.22

Compound: Cc1cc(C=NOC(C)C)c(C)cc1N [4-(Isopropoxyiminomethyl)-2,5-dimethylaniline]
logP ([1]; pH 2.3): 2.77

Compound: Cc1cc(C=O)c(C)cc1N [4-Amino-2,5-dimethylbenzaldehyde]
logP ([1]; pH 2.3): 1.34

Compound: CCN(C)C=Nc1cc(C)c(/C=N/OCc2ccccc2)cc1C [Compound 3, N′-(4-{(E)-[(benzyloxy)imino]methyl}-2,5-di-methylphenyl)-N-ethyl-N-methylimidoformamide]
logP ([1]; pH 2.3): 2.02
pest or weed control at 500 ppm (Sphaerotheca fuliginea; [2]): ≥ 70%

Compound: CCN(C)C=Nc1cc(C)c(/C=N/OCc2ccc3c(c2)OCOC3)cc1C [Compound 4, N′-(4-{(E)-[(4H-1,3-benzodioxin-7-ylmethoxy)imino]methyl}-2,5-dimethylphenyl)-N-ethyl-N-methylimidoformamide]
logP [1]: 4.71
logP ([1]; pH 2.3): 2.02

Compound: CCN(C)C=Nc1cc(C)c(/C(C)=N/OC(C)(C)C)cc1C [Compound 9, N-ethyl-N′-{4-[(1E)-N-tert-butoxyethanimidoyl]-2,5-dimethylphenyl}-N-methylimidoformamide]
logP [1]: 5.17
logP ([1]; pH 2.3): 2.19

Compound: CCN(C)C=Nc1cc(C)c(/C(C)=N/OC(C)C)cc1C [Compound 10, N-ethyl-N′-{4-[(1E)-N-isopropoxyethanimidoyl]-2,5-dimethylphenyl}-N-methylimidoformamide]
logP [1]: 4.42
logP ([1]; pH 2.3): 1.92

Compound: CCN(C)C=Nc1cc(C)c(/C(C)=N/Oc2ccccc2)cc1C [Compound 11, N′-{2,5-dimethyl-4-[(1E)-N-phenoxyethanimidoyl]-phenyl}-N-ethyl-N-methylimidoformamide]
logP ([1]; pH 2.3): 2.21
pest or weed control at 500 ppm (Sphaerotheca fuliginea; [2]): ≥ 70%

Compound: CCN(C)C=Nc1cc(C)c(/C(C)=N/OCc2ccc(C(C)(C)C)cc2)cc1C [Compound 12, N′-(4-{(1E)-N-[(4-tert-butylbenzyl)oxy]ethanimidoyl}-2,5-dimethylphenyl)-N-ethyl-N-methylimidoformamide]
logP [1]: 6.26
logP ([1]; pH 2.3): 3.05
pest or weed control at 500 ppm (Sphaerotheca fuliginea; [2]): ≥ 70%

Compound: CCN(C)C=Nc1cc(C)c(/C(C)=N/OCC(C)C)cc1C [Compound 13, N-ethyl-N′-{4-[(1E)-N-isobutoxyethanimidoyl]-2,5-dimethylphenyl}-N-methylimidoformamide]
logP [1]: 4.98
logP ([1]; pH 2.3): 2.22

Compound: CCN(C)C=Nc1cc(C)c(/C(C)=N/OC2CCCC2)cc1C [Compound 14, N′-{4-[(1E)-N-(cyclopentyloxy)ethanimidoyl]-2,5-dimethylphenyl}-N-ethyl-N-methylimidoformamide]
logP [1]: 5.24
logP ([1]; pH 2.3): 2.2
pest or weed control at 500 ppm (Sphaerotheca fuliginea; [2]): ≥ 70%

Compound: C#CC(C)O/N=C(\C)c1cc(C)c(N=CN(C)CC)cc1C (centres unmarked) [Compound 15, N′-(2,5-dimethyl-4-{(1E)-N-[(1-methylprop-2-yn-1-yl)oxy]ethanimidoyl}phenyl)-N-ethyl-N-methylimidoformamide]
logP [1]: 4
logP ([1]; pH 2.3): 1.8
pest or weed control at 500 ppm (Sphaerotheca fuliginea; [2]): ≥ 70%

Compound: CC#CCO/N=C(\C)c1cc(C)c(N=CN(C)CC)cc1C [Compound 16, N′-{4-[(1E)-N-(but-2-yn-1-yloxy)ethanimidoyl]-2,5-dimethylphenyl}-N-ethyl-N-methylimidoformamide]
logP [1]: 3.91
logP ([1]; pH 2.3): 1.72
pest or weed control at 500 ppm (Sphaerotheca fuliginea): ≥ 70%

Compound: CCN(C)C=Nc1cc(C)c(/C(C)=N/OCC(F)(F)F)cc1C [Compound 17, N′-{2,5-dimethyl-4-[(1E)-N-(2,2,2-trifluoroethoxy)ethanimidoyl]phenyl}-N-ethyl-N-methylimidoformamide]
logP [1]: 4.24
logP ([1]; pH 2.3): 1.88
pest or weed control at 500 ppm (Sphaerotheca fuliginea; [2]): ≥ 70%

Compound: CCN(C)C=Nc1cc(C)c(/C(C)=N/OCOCCOC)cc1C [Compound 18, N′-{2,5-dimethyl-4-[(1E)-1-methyl-3,5,8-trioxa-2-azanon-1-en-1-yl]phenyl}-N-ethyl-N-methylimidoformamide]
logP [1]: 3.05
logP ([1]; pH 2.3): 1.43

Compound: CCN(C)C=Nc1cc(C)c(/C(C)=N/OC/C=C/c2ccccc2)cc1C [Compound 19, N′-{2,5-dimethyl-4-[(1E)-N-{[(2E)-3-phenylprop-2-en-1-yl]oxy}ethanimidoyl]phenyl}-N-ethyl-N-methylimidoformamide]
logP [1]: 5.2
logP ([1]; pH 2.3): 2.32

Compound: CCO/N=C(\C)c1cc(C)c(N=CN(C)CC)cc1C [Compound 23, N-ethyl-N′-{4-[(1E)—N-ethoxyethanimidoyl]-2,5-dimethylphenyl}-N-methylimidoformamide]
logP [1]: 3.86
logP ([1]; pH 2.3): 1.6

Compound: CCN(C)C=Nc1cc(C)c(/C(C)=N/OCc2ccc(Cl)c(Cl)c2)cc1C [Compound 30, N′-(4-{(1E)-N-[(3,4-dichlorobenzyl)oxy]-ethanimidoyl}-2,5-dimethylphenyl)-N-ethyl-N-methylimidoformamide]
logP [1]: 5.79
logP ([1]; pH 2.3): 2.71
pest or weed control at 500 ppm (Sphaerotheca fuliginea): ≥ 70%

Compound: CCN(C)C=Nc1cc(C)c(/C(C)=N/OC(C)c2ccc(Cl)cc2)cc1C (centres unmarked) [Compound 38, N′-(4-{(1E)-N-[1-(4-chlorophenyl)ethoxy]ethanimidoyl}-2,5-dimethylphenyl)-N-ethyl-N-methylimidoformamide]
logP [1]: 5.67
logP ([1]; pH 2.3): 2.46

Compound: CCN(C)C=Nc1cc(C)c(/C(C)=N/OCC[Si](C)(C)C)cc1C [Compound 44, N′-(2,5-dimethyl-4-{(1E)-N-[2-(trimethylsilyl)ethoxy]ethanimidoyl}phenyl)-N-ethyl-N-methylimidoformamide]
logP [1]: 6.21
logP ([1]; pH 2.3): 2.76

Compound: CCN(C)C=Nc1cc(C)c(/C=N/OCCC(C)(C)C)cc1C [Compound 48, N′-(4-{(E)-[(3,3-dimethylbutoxy)imino]methyl}-2,5-dimethylphenyl)-N-ethyl-N-methylimidoformamide]
logP [1]: 5.89
logP ([1]; pH 2.3): 2.3

Compound: N-(2,5-dimethyl-4-{(E)-[1-phenylethoxy]ethanimidoyl}phenyl)-N-ethyl-N-methylimidoformamide [Compound 27]
logP acidic ([1]; acidic): 2.39
logP neutral ([1]; neutral): 5.09
